{"source": "patent US20210308110A1", "about": "“ANTIVIRAL COMPOUNDS AND METHOD FOR TREATING RNA VIRAL INFECTION, PARTICULARLY COVID-19” (Senhwa Biosciences, Inc., priority 2020, published 2021)", "key": {"[1]": {"tested_on": "SARS-CoV-2", "experiment": "SARS-CoV-2 infection of Vero E6 cells, quantified by N protein expression (IFA / PRNT)", "format": "cell-based", "details": "Severe acute respiratory syndrome coronavirus 2, Vero C1008, Vero E6 cells pretreated 20 hr, infected at MOI=0.01 for 2 days, read-out: IC50 (anti-SARS-CoV-2 activity)"}, "[2]": {"tested_on": "SARS-CoV-2", "experiment": "SARS-CoV-2 plaque reduction neutralization test, plaque formation", "format": "cell-based", "details": "at 1.25 μM"}, "[3]": {"tested_on": "SARS-CoV-2", "experiment": "Mouse challenge with SARS-CoV-2, lung histopathology scoring", "format": "in vivo, AAV/hACE2 C57BL/6 mice", "details": "50 mg/kg I.P., AAV/hACE2 mice, day 5 post-SARS-CoV-2 infection; score scale 0-5; 2 out of 5"}, "[4]": {"experiment": "Cell viability test by Cell Counting Kit-8 (CCK-8)", "details": "African green monkey"}, "[5]": {"experiment": "in vitro", "details": "African green monkey"}}, "data": [{"smiles": "O=C(O)c1ccc2c(c1)nc(Nc1cccc(Cl)c1)c1ccncc12", "note": "[Compound A, Silmitasertib]", "values": [{"measurement": "IC50", "setting": "[1]", "result": 2740, "unit": "nM"}, {"measurement": "reduction of plaque formation", "setting": "[2]", "result": 75, "unit": "%"}, {"measurement": "clinical score of lung histopathology", "setting": "[3]", "result": "less than 2"}, {"measurement": "CC50", "setting": "[4]", "result": "> 5000", "unit": "nM"}]}, {"smiles": "O=C1NC(=O)/C(=C/c2cnn3c(NC4CC4)cc(Nc4cc(Cl)ccc4F)nc23)N1", "note": "[Compound B]", "values": [{"measurement": "IC50", "setting": "[1]", "result": 126, "unit": "nM"}, {"measurement": "reduction of plaque formation", "setting": "[2]", "result": 75, "unit": "%"}, {"measurement": "CC50", "setting": "[4]", "result": 5900, "unit": "nM"}]}, {"smiles": "CC(N)C(=O)OCN1C(=O)N/C(=C\\c2cnn3c(NC4CC4)cc(Nc4cc(Cl)ccc4F)nc23)C1=O", "note": "(stereo not drawn) [Compound C]", "values": [{"measurement": "IC50", "setting": "[1]", "result": 97, "unit": "nM"}, {"measurement": "reduction of plaque formation", "setting": "[2]", "result": 75, "unit": "%"}, {"measurement": "CC50", "setting": "[4]", "result": 4220, "unit": "nM"}]}, {"smiles": "CCC(CC)COC(=O)[C@H](C)N[P@](=O)(OC[C@H]1O[C@@](C#N)(c2ccc3c(N)ncnn23)[C@H](O)[C@@H]1O)Oc1ccccc1", "note": "[Compound E, Remdesivir, reference compound]", "values": [{"measurement": "IC50", "setting": "[1]", "result": 830, "unit": "nM"}, {"measurement": "CC50", "setting": "[5]", "result": "> 5000", "unit": "nM"}]}]}
